Reference: patent US11034725B2, “Compositions and methods for treating cardiovascular disease” (Genentech, Inc., priority 2016, dated 2021)
Like-named read-outs stand apart in the source and are kept apart here. Numbered stars: 1 amine (or outer) side, 2 acyl side, 3 side chain; on linkers, the order of the positions; unused ones are H or OH. Peptide text beside a SMILES is read from it. * marks the point of attachment. Propanoyl(3-(4-MeO-Ph)) = COc1ccc(CCC(=O)*)cc1; Propanoyl(3-(3-pyridyl)) = O=C(CCc1cccnc1)*; Benzoyl(4-Ph) = O=C(c1ccc(-c2ccccc2)cc1)*; X43 = CS(=O)(=O)c1ccc(C(=O)CCC(=O)*)cc1; Pentanoyl(5-Ph) = O=C(CCCCc1ccccc1)*; Propanoyl(3-cHex) = O=C(CCC1CCCCC1)*; X16 = O=C(c1cc(-c2ccncc2)[nH]n1)*; X37 = Cc1ccc(C(=O)CCC(=O)*)cc1; X39 = O=C(C1CCC(c2ccccc2)CC1)*; X22 = O=C(C1CC(Cc2ccccc2)C1)*; X6 = O=C(Cn1ccc(=O)[nH]c1=O)*; Suc = O=C(CCC(=O)[*:2])[*:1]; X38 = O=C(CC1CCS(=O)(=O)C1)*; X40 = CC(CC(=O)*)CC(C)(C)C; X10 = Nc1cccc(CCC(=O)*)c1; X29 = Nc1ccc(CCC(=O)*)cc1; X33 = CN1CCN(CCC(=O)*)CC1; Morpholide = C1CN(*)CCO1; X27 = O=C(CCCN1CCOCC1)*; X2 = CC(C)(C)CCCC(=O)*; X23 = NC(=O)NCCC(=O)*; X41 = O=C(CCn1cncn1)*

Legend:
[1] = molecular target: PCSK9 (Homo sapiens, UniProt Q8NBP7); assay: PCSK9/EGF(A) TR-FRET binding assay; settings: Table 8E, additional compounds
PCSK9, sequence (Q8NBP7 153-692): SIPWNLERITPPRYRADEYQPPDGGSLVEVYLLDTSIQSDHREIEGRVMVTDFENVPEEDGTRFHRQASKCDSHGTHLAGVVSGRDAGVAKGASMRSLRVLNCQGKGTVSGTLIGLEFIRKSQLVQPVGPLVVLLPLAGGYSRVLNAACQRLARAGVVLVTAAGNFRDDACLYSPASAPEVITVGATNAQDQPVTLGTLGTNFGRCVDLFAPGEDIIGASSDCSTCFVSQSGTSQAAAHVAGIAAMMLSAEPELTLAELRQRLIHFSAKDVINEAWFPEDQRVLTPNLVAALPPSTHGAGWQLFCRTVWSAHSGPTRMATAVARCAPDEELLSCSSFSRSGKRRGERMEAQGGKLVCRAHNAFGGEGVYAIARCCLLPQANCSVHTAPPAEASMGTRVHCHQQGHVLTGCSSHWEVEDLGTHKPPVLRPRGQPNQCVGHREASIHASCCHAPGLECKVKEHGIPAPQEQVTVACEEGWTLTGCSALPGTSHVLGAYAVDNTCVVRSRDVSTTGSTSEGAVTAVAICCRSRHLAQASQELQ
PCSK9, sequence (Q8NBP7 31-152 partner limits assumed): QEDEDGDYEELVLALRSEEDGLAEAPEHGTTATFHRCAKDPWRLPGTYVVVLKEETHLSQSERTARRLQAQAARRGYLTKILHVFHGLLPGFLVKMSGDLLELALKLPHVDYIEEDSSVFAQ

[2] = molecular target: T1, PCSK9Δhelix (Homo sapiens, UniProt Q8NBP7); assay: PCSK9Δhelix/Ab20 TR-FRET binding assay; settings: Table 8E, additional compounds
T1 construct: Human PCSK9 construct M1-Q692 with an engineered TEV site (residue deletion Y166, R167); made in house; host or cells: CHO
T1 sequence (Q8NBP7 with tags, fused parts or gaps limits assumed): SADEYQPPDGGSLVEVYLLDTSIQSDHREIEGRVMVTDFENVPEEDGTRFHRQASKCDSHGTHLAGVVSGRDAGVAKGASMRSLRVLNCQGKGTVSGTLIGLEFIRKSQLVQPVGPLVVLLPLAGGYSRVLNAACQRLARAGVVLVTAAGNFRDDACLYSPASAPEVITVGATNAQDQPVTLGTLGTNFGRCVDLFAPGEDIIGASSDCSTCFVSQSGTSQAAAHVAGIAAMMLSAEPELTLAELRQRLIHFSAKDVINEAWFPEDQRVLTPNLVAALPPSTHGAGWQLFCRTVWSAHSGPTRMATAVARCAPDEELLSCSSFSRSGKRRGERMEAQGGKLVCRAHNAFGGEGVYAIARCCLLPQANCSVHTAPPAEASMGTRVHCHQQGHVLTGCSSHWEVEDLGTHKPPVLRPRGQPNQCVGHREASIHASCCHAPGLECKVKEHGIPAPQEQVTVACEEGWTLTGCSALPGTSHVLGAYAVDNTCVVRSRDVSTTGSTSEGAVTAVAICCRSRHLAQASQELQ
T1 sequence (Q8NBP7 31-152 partner limits assumed): as the sequence (Q8NBP7 31-152 partner limits assumed) above

[3] = TR-FRET, read-out: PCSK9/EGF(A) IC50
[4] = TR-FRET, read-out: PCSK9Δhelix/Ab20 IC50

| Structure (SMILES) | IC50 [1, 3] [µM] | IC50 [2, 4] [µM] | IC50 ([1]; PCSK9/EGF(A) IC50, TR-FRET) [µM] | IC50 ([2]; PCSK9Δhelix/Ab20 IC50, TR-FRET) [µM] |
| --- | --- | --- | --- | --- |
| CC[C@H](C)[C@H](NC(=O)[C@H](CCCNC(=N)N)NC(=O)[C@@H](NC(=O)[C@H](CC(C)C)NC(=O)[C@H](CC(N)=O)NC(=O)[C@H](Cc1c[nH]c2ccccc12)NC(=O)CCc1cccnc1)C(C)C)C(=O)NCC(=O)N[C@@H](CC(C)C)C(=O)N[C@@H](CC(C)C)C(=O)N[C@@H](CCCNC(=N)N)C(N)=O [Compound 138] ({Propanoyl(3-(3-pyridyl))}-WNLVRIGLLR-NH2) | 48 | 4.9 |  |  |
| CC[C@H](C)[C@H](NC(=O)[C@H](CCCNC(=N)N)NC(=O)[C@@H](NC(=O)[C@H](CC(C)C)NC(=O)[C@H](CC(N)=O)NC(=O)[C@H](Cc1c[nH]c2ccccc12)NC(=O)CC1CCS(=O)(=O)C1)C(C)C)C(=O)NCC(=O)N[C@@H](CC(C)C)C(=O)N[C@@H](CC(C)C)C(=O)N[C@@H](CCCNC(=N)N)C(N)=O (stereo partly drawn) [Compound 139] (X38-WNLVRIGLLR-NH2) | ≥ 50 | 19 |  |  |
| CC[C@H](C)[C@H](NC(=O)[C@H](CCCNC(=N)N)NC(=O)[C@@H](NC(=O)[C@H](CC(C)C)NC(=O)[C@H](CC(N)=O)NC(=O)[C@H](Cc1c[nH]c2ccccc12)NC(=O)CCN1CCN(C)CC1)C(C)C)C(=O)NCC(=O)N[C@@H](CC(C)C)C(=O)N[C@@H](CC(C)C)C(=O)N[C@@H](CCCNC(=N)N)C(N)=O [Compound 140] (X33-WNLVRIGLLR-NH2) | ≥ 50 | 26 |  |  |
| CC[C@H](C)[C@H](NC(=O)[C@H](CCCNC(=N)N)NC(=O)[C@@H](NC(=O)[C@H](CC(C)C)NC(=O)[C@H](CC(N)=O)NC(=O)[C@H](Cc1c[nH]c2ccccc12)NC(=O)CCNC(N)=O)C(C)C)C(=O)NCC(=O)N[C@@H](CC(C)C)C(=O)N[C@@H](CC(C)C)C(=O)N[C@@H](CCCNC(=N)N)C(N)=O [Compound 141] (X23-WNLVRIGLLR-NH2) | ≥ 50 | 36 |  |  |
| CC[C@H](C)[C@H](NC(=O)[C@H](CCCNC(=N)N)NC(=O)[C@@H](NC(=O)[C@H](CC(C)C)NC(=O)[C@H](CC(N)=O)NC(=O)[C@H](Cc1c[nH]c2ccccc12)NC(=O)CCn1cncn1)C(C)C)C(=O)NCC(=O)N[C@@H](CC(C)C)C(=O)N[C@@H](CC(C)C)C(=O)N[C@@H](CCCNC(=N)N)C(N)=O [Compound 142] (X41-WNLVRIGLLR-NH2) | ≥ 50 | 15 |  |  |
| CC[C@H](C)[C@H](NC(=O)[C@H](CCCNC(=N)N)NC(=O)[C@@H](NC(=O)[C@H](CC(C)C)NC(=O)[C@H](CC(N)=O)NC(=O)[C@H](Cc1c[nH]c2ccccc12)NC(=O)Cn1ccc(=O)[nH]c1=O)C(C)C)C(=O)NCC(=O)N[C@@H](CC(C)C)C(=O)N[C@@H](CC(C)C)C(=O)N[C@@H](CCCNC(=N)N)C(N)=O [Compound 143] (X6-WNLVRIGLLR-NH2) | ≥ 50 | 23 |  |  |
| CC[C@H](C)[C@H](NC(=O)[C@H](CCCNC(=N)N)NC(=O)[C@@H](NC(=O)[C@H](CC(C)C)NC(=O)[C@H](CC(N)=O)NC(=O)[C@H](Cc1c[nH]c2ccccc12)NC(=O)C1CC(Cc2ccccc2)C1)C(C)C)C(=O)NCC(=O)N[C@@H](CC(C)C)C(=O)N[C@@H](CC(C)C)C(=O)N[C@@H](CCCNC(=N)N)C(N)=O (stereo partly drawn) [Compound 144] (X22-WNLVRIGLLR-NH2) | 9.7 | 4 |  |  |
| CC[C@H](C)[C@H](NC(=O)[C@H](CCCNC(=N)N)NC(=O)[C@@H](NC(=O)[C@H](CC(C)C)NC(=O)[C@H](CC(N)=O)NC(=O)[C@H](Cc1c[nH]c2ccccc12)NC(=O)c1ccc(-c2ccccc2)cc1)C(C)C)C(=O)NCC(=O)N[C@@H](CC(C)C)C(=O)N[C@@H](CC(C)C)C(=O)N[C@@H](CCCNC(=N)N)C(N)=O [Compound 145] ({Benzoyl(4-Ph)}-WNLVRIGLLR-NH2) |  |  | 7.3 | 2.2 |
| CC[C@H](C)[C@H](NC(=O)[C@H](CCCNC(=N)N)NC(=O)[C@@H](NC(=O)[C@H](CC(C)C)NC(=O)[C@H](CC(N)=O)NC(=O)[C@H](Cc1c[nH]c2ccccc12)NC(=O)CCCCc1ccccc1)C(C)C)C(=O)NCC(=O)N[C@@H](CC(C)C)C(=O)N[C@@H](CC(C)C)C(=O)N[C@@H](CCCNC(=N)N)C(N)=O [Compound 146] ({Pentanoyl(5-Ph)}-WNLVRIGLLR-NH2) | 11 | 1.7 |  |  |
| CC[C@H](C)[C@H](NC(=O)[C@H](CCCNC(=N)N)NC(=O)[C@@H](NC(=O)[C@H](CC(C)C)NC(=O)[C@H](CC(N)=O)NC(=O)[C@H](Cc1c[nH]c2ccccc12)NC(=O)C1CCC(c2ccccc2)CC1)C(C)C)C(=O)NCC(=O)N[C@@H](CC(C)C)C(=O)N[C@@H](CC(C)C)C(=O)N[C@@H](CCCNC(=N)N)C(N)=O (stereo partly drawn) [Compound 147] (X39-WNLVRIGLLR-NH2) | 2.6 | 0.41 |  |  |
| CC[C@H](C)[C@H](NC(=O)[C@H](CCCNC(=N)N)NC(=O)[C@@H](NC(=O)[C@H](CC(C)C)NC(=O)[C@H](CC(N)=O)NC(=O)[C@H](Cc1c[nH]c2ccccc12)NC(=O)CCCC(C)(C)C)C(C)C)C(=O)NCC(=O)N[C@@H](CC(C)C)C(=O)N[C@@H](CC(C)C)C(=O)N[C@@H](CCCNC(=N)N)C(N)=O [Compound 148] (X2-WNLVRIGLLR-NH2) | 19 | 11 |  |  |
| CC[C@H](C)[C@H](NC(=O)[C@H](CCCNC(=N)N)NC(=O)[C@@H](NC(=O)[C@H](CC(C)C)NC(=O)[C@H](CC(N)=O)NC(=O)[C@H](Cc1c[nH]c2ccccc12)NC(=O)CC(C)CC(C)(C)C)C(C)C)C(=O)NCC(=O)N[C@@H](CC(C)C)C(=O)N[C@@H](CC(C)C)C(=O)N[C@@H](CCCNC(=N)N)C(N)=O (stereo partly drawn) [Compound 149] (X40-WNLVRIGLLR-NH2) | 11 | 8.9 |  |  |
| CC[C@H](C)[C@H](NC(=O)[C@H](CCCNC(=N)N)NC(=O)[C@@H](NC(=O)[C@H](CC(C)C)NC(=O)[C@H](CC(N)=O)NC(=O)[C@H](Cc1c[nH]c2ccccc12)NC(=O)c1cc(-c2ccncc2)[nH]n1)C(C)C)C(=O)NCC(=O)N[C@@H](CC(C)C)C(=O)N[C@@H](CC(C)C)C(=O)N[C@@H](CCCNC(=N)N)C(N)=O [Compound 150] (X16-WNLVRIGLLR-NH2) | 22 | 8.2 |  |  |
| CC[C@H](C)[C@H](NC(=O)[C@H](CCCNC(=N)N)NC(=O)[C@@H](NC(=O)[C@H](CC(C)C)NC(=O)[C@H](CC(N)=O)NC(=O)[C@H](Cc1c[nH]c2ccccc12)NC(=O)CCC1CCCCC1)C(C)C)C(=O)NCC(=O)N[C@@H](CC(C)C)C(=O)N[C@@H](CC(C)C)C(=O)N[C@@H](CCCNC(=N)N)C(N)=O [Compound 151] ({Propanoyl(3-cHex)}-WNLVRIGLLR-NH2) | 6.9 | 2.5 |  |  |
| CC[C@H](C)[C@H](NC(=O)[C@H](CCCNC(=N)N)NC(=O)[C@@H](NC(=O)[C@H](CC(C)C)NC(=O)[C@H](CC(N)=O)NC(=O)[C@H](Cc1c[nH]c2ccccc12)NC(=O)CCc1ccc(N)cc1)C(C)C)C(=O)NCC(=O)N[C@@H](CC(C)C)C(=O)N[C@H](C(=O)N[C@@H](CCCNC(=N)N)C(N)=O)[C@@H](C)O [Compound 161] (X29-WNLVRIGLTR-NH2) | ≥ 50 | 5 |  |  |
| CC[C@H](C)[C@H](NC(=O)[C@H](CCCNC(=N)N)NC(=O)[C@@H](NC(=O)[C@H](CC(C)C)NC(=O)[C@H](CC(N)=O)NC(=O)[C@H](Cc1c[nH]c2ccccc12)NC(=O)CCCN1CCOCC1)C(C)C)C(=O)NCC(=O)N[C@@H](CC(C)C)C(=O)N[C@H](C(=O)N[C@@H](CCCNC(=N)N)C(N)=O)[C@@H](C)O [Compound 162] (X27-WNLVRIGLTR-NH2) | ≥ 50 | 37 |  |  |
| CC[C@H](C)[C@H](NC(=O)[C@H](CCCNC(=N)N)NC(=O)[C@@H](NC(=O)[C@H](CC(C)C)NC(=O)[C@H](CC(N)=O)NC(=O)[C@H](Cc1c[nH]c2ccccc12)NC(=O)CCC(=O)c1ccc(S(C)(=O)=O)cc1)C(C)C)C(=O)NCC(=O)N[C@@H](CC(C)C)C(=O)N[C@H](C(=O)N[C@@H](CCCNC(=N)N)C(N)=O)[C@@H](C)O [Compound 163] (X43-WNLVRIGLTR-NH2) | ≥ 50 | 37 |  |  |
| CC[C@H](C)[C@H](NC(=O)[C@H](CCCNC(=N)N)NC(=O)[C@@H](NC(=O)[C@H](CC(C)C)NC(=O)[C@H](CC(N)=O)NC(=O)[C@H](Cc1c[nH]c2ccccc12)NC(=O)CCc1cccc(N)c1)C(C)C)C(=O)NCC(=O)N[C@@H](CC(C)C)C(=O)N[C@H](C(=O)N[C@@H](CCCNC(=N)N)C(N)=O)[C@@H](C)O [Compound 164] (X10-WNLVRIGLTR-NH2) | ≥ 50 | 12 |  |  |
| CC[C@H](C)[C@H](NC(=O)[C@H](CCCNC(=N)N)NC(=O)[C@@H](NC(=O)[C@H](CC(C)C)NC(=O)[C@H](CC(N)=O)NC(=O)[C@H](Cc1c[nH]c2ccccc12)NC(=O)CCC(=O)c1ccc(C)cc1)C(C)C)C(=O)NCC(=O)N[C@@H](CC(C)C)C(=O)N[C@H](C(=O)N[C@@H](CCCNC(=N)N)C(N)=O)[C@@H](C)O [Compound 165] (X37-WNLVRIGLTR-NH2) | ≥ 50 | 18 |  |  |
| CC[C@H](C)[C@H](NC(=O)[C@H](CCCNC(=N)N)NC(=O)[C@@H](NC(=O)[C@H](CC(C)C)NC(=O)[C@H](CC(N)=O)NC(=O)[C@H](Cc1c[nH]c2ccccc12)NC(=O)CCc1ccc(OC)cc1)C(C)C)C(=O)NCC(=O)N[C@@H](CC(C)C)C(=O)N[C@H](C(=O)N[C@@H](CCCNC(=N)N)C(N)=O)[C@@H](C)O [Compound 166] ({Propanoyl(3-(4-MeO-Ph))}-WNLVRIGLTR-NH2) | ≥ 50 | 5.9 |  |  |
| CC[C@H](C)[C@H](NC(=O)[C@H](CCCNC(=N)N)NC(=O)[C@@H](NC(=O)[C@H](CC(C)C)NC(=O)[C@H](CC(N)=O)NC(=O)[C@H](Cc1c[nH]c2ccccc12)NC(=O)CCC(=O)N1CCOCC1)C(C)C)C(=O)NCC(=O)N[C@@H](CC(C)C)C(=O)N[C@H](C(=O)N[C@@H](CCCNC(=N)N)C(N)=O)[C@@H](C)O [Compound 167] ({Morpholide-Suc}-WNLVRIGLTR-NH2) | ≥ 50 | 43 |  |  |
